From a compilation of properties of binary mixtures (doi:10.1021/je400097b)

Assay: xn = mol fraction of the nth substance listed
Conditions: 101 kPa

`O` + CC[NH+](C)CC.O=S(=O)([O-])C(F)(F)F gave a viscosity (293.15 K, x1 = 1) of 1.2 mPa·s.

`CC[NH+](C)CC.O=S(=O)([O-])C(F)(F)F` + O showed a viscosity (293.15 K, x2 = 0.037) of 53.3 mPa·s, a viscosity (293.15 K, x2 = 0.434) of 22.3 mPa·s and a viscosity (293.15 K, x2 = 0.586) of 14.5 mPa·s. The viscosity (293.15 K, x2 = 0.844) was 4.99 mPa·s, the viscosity (293.15 K, x2 = 0.925) was 2.86 mPa·s and the viscosity (293.15 K, x2 = 0.972) was 1.69 mPa·s. The viscosity (313.15 K, x2 = 0.434) was 12.1 mPa·s, the viscosity (313.15 K, x2 = 0.586) was 7.98 mPa·s and the viscosity (313.15 K, x2 = 0.759) was 4.38 mPa·s. It also gave a viscosity (313.15 K, x2 = 0.844) of 2.89 mPa·s, a viscosity (313.15 K, x2 = 0.925) of 1.75 mPa·s and a viscosity (313.15 K, x2 = 0.972) of 1.2 mPa·s. It also gave a viscosity (333.15 K, x2 = 0.037) of 14.6 mPa·s, a viscosity (333.15 K, x2 = 0.586) of 4.97 mPa·s and a viscosity (333.15 K, x2 = 0.925) of 1.28 mPa·s. For the same molecule, the viscosity (333.15 K, x2 = 0.972) was 1.01 mPa·s, the viscosity (353.15 K, x2 = 0.037) was 9.18 mPa·s and the viscosity (353.15 K, x2 = 0.586) was 3.38 mPa·s. The viscosity (353.15 K, x2 = 0.844) was 1.45 mPa·s, the viscosity (353.15 K, x2 = 0.925) was 1.08 mPa·s and the viscosity (353.15 K, x2 = 0.972) was 0.91 mPa·s.
